How the values were obtained:
[1] = system: Aspergillus niger (ATCC 16404); test: antimicrobial preservative effectiveness test in analogy to USP 32 <51>; type: cell-based; details: A. niger; for cfu/mL 0 h: 0 h after inoculation; for cfu/mL 0 h / cfu/mL 24 h / cfu/mL 48 h: approx. 22.5° C.
Protocol: (§1) An antimicrobial preservative effectiveness test in analogy to that of USP 32 <51>was carried out. Sample vials prepared according to Examples 1, 3 and 4 were inoculated with Escherichia coli, Pseudomonas aeruginosa, Staphylococcus aureus, Candida albicans and Aspergillus niger and incubated at approx. 22.5° C. Commercially obtained samples of Disoprivan® were tested as comparators. […]

[2] = system: Escherichia coli (ATCC 8739); test: as above; type: cell-based; details: E. coli; for cfu/mL 0 h: 0 h after inoculation; for cfu/mL 0 h / cfu/mL 24 h / cfu/mL 48 h: approx. 22.5° C.
Protocol: as §1

[3] = system: Pseudomonas aeruginosa (ATCC 9027); test: as above; type: cell-based; details: P. aeruginosa; for cfu/mL 0 h: 0 h after inoculation; for cfu/mL 0 h / cfu/mL 24 h / cfu/mL 48 h: approx. 22.5° C.
Protocol: (§2) An antimicrobial preservative effectiveness test in analogy to that of USP 32 <51>was carried out. Sample vials prepared according to Examples 1, 3 and 4 were inoculated with Escherichia coli, Pseudomonas aeruginosa, Staphylococcus aureus, Candida albicans and Aspergillus niger and incubated at approx. 22.5° C. Commercially obtained samples of Disoprivan® were tested as comparators.
(§3) To determine whether the observed inhibition of microbial growth in the emulsions of the invention is an effect of the semifluorinated alkanes or the propofol, the test was repeated with a placebo emulsion containing no propofol, but only F6H8 in a higher concentration (40 wt.-%) and S75 in dextrose solution. Also tested were pure solutions of F6H8 and F4H5.

[4] = system: Staphylococcus aureus (ATCC 6538); test: as above; type: cell-based; details: S. aureus; for cfu/mL 0 h: 0 h after inoculation; for cfu/mL 0 h / cfu/mL 24 h / cfu/mL 48 h: approx. 22.5° C.
Protocol: as §2, §3

[5] = system: Candida albicans (ATCC 10231); test: as above; type: cell-based; details: C. albicans; for cfu/mL 0 h: 0 h after inoculation; for cfu/mL 0 h / cfu/mL 24 h / cfu/mL 48 h: approx. 22.5° C.
Protocol: as §2, §3

[6] = miscibility of propofol with semifluorinated alkanes; type: physicochemical; details: over a wide temperature range
Source text: By virtue of the high solubility of propofol in semifluorinated alkanes, it is now possible to provide injectable propofol formulations having a high strength (or concentration of propofol), and thus require only a low volume of administration. This will also bring about an improved tolerability, since a lower administration volume inherently means a lower intake of excipients (such as emulsifiers).

[7] = hydroxyl group; cited from earlier work

Structure (SMILES)	cfu/mL 0 h [1]	Change in log steps 24 h [1]	cfu/mL 24 h [1]	Change in log steps 48 h [1]	cfu/mL 48 h [1]	Change in log steps 6 d [1]	cfu/mL 6 d [1]	cfu/mL 0 h [2]	Change in log steps 24 h [2]	cfu/mL 24 h [2]	Change in log steps 48 h [2]	cfu/mL 48 h [2]	cfu/mL 0 h [3]	Change in log steps 24 h [3]	cfu/mL 24 h [3]	Change in log steps 48 h [3]	cfu/mL 48 h [3]	cfu/mL 0 h [4]	Change in log steps 24 h [4]	miscibility of propofol with the semifluorinated alkane [6]	other results
CCCCCCCCC(F)(F)C(F)(F)C(F)(F)C(F)(F)C(F)(F)C(F)(F)F [Example F6H8]	1 500 cfu/mL	≤-1.2 log steps	<100 cfu/mL	≤-1.2 log steps	<100 cfu/mL	≤-1.2 log steps	<100 cfu/mL	1 600 cfu/mL	≤-1.2 log steps	<100 cfu/mL	≤-1.2 log steps	<100 cfu/mL	1 600 cfu/mL	≤-1.2 log steps	<100 cfu/mL	≤-1.2 log steps	<100 cfu/mL	2 900 cfu/mL	≤-1.4 log steps	fully miscible	cfu/mL 24 h [4]: <100 cfu/mL; Change in log steps 48 h [4]: ≤-1.4 log steps; cfu/mL 48 h [4]: <100 cfu/mL; cfu/mL 0 h [5]: 1 500 cfu/mL; Change in log steps 24 h [5]: ≤-1.2 log steps; cfu/mL 24 h [5]: <100 cfu/mL; Change in log steps 48 h [5]: ≤-1.1 log steps; cfu/mL 48 h [5]: <100 cfu/mL
CCCCCC(F)(F)C(F)(F)C(F)(F)C(F)(F)F [Example F4H5]	3 000 cfu/mL	≤-1.4 log steps	<100 cfu/mL	≤-1.2 log steps	<100 cfu/mL	≤-1.2 log steps	<100 cfu/mL	1 600 cfu/mL	≤-1.2 log steps	<100 cfu/mL	≤-1.2 log steps	<100 cfu/mL	1 600 cfu/mL	≤-1.2 log steps	<100 cfu/mL	≤-1.2 log steps	<100 cfu/mL	2 900 cfu/mL	≤-1.4 log steps	fully miscible	cfu/mL 24 h [4]: <100 cfu/mL; Change in log steps 48 h [4]: ≤-1.4 log steps; cfu/mL 48 h [4]: <100 cfu/mL; cfu/mL 0 h [5]: 1 500 cfu/mL; Change in log steps 24 h [5]: ≤-1.2 log steps; cfu/mL 24 h [5]: <100 cfu/mL; Change in log steps 48 h [5]: ≤-1.1 log steps; cfu/mL 48 h [5]: <100 cfu/mL
CCCCCCC(F)(F)C(F)(F)C(F)(F)C(F)(F)F [Example F4H6]	–	–	–	–	–	–	–	–	–	–	–	–	–	–	–	–	–	–	–	fully miscible	–
CC(C)c1cccc(C(C)C)c1O [propofol, 2,6-diisopropylphenol]	–	–	–	–	–	–	–	–	–	–	–	–	–	–	–	–	–	–	–	–	pKa [7]: 11

Reference: patent publication US20250345276A1, “O/W-EMULSIONS COMPRISING SEMIFLUORINATED ALKANES” (NOVALIQ GMBH, priority 2011, published 2025)
